This is an account of results in paper PMC9965875 (Pharmaceutics, 2023).

Data set [1] relates to Leishmania (L.) infantum promastigotes (strain MHOM/MA/67/ITMAP-263). The data set can be described thus: organism not typed. In kind it is cell-based. The conditions noted are these: read-out: Anti-Promastigote Activity (IC50).
A further data set can be described thus: in vitro. The conditions noted are these: BALB/c, mouse.

Read-outs that look alike come from different tables or passages of the source. A value given as a limit tells only on which side of the number the result lay.

The IC50 is the concentration needed to halve the response being measured. Usually EC50 stands for the concentration that produces a half-maximal response. Read a high EC50 as lower potency in that assay. Turning to `Clc1ccc2c(NCCCCNc3c4c(nc5cc(Cl)ccc35)CCCC4)c3c(nc2c1)CCCC3` [Compound 10.j], in data set [1], the IC50 is 8.56 ± 1.56 µM. For the same compound, in the data set “in vitro”, the midpoint of the response, the EC50, lay at 9.02 ± 1.79 µM.
As to `CC(=O)NCCCCCCCCCCNc1c2c(nc3cc(Cl)ccc13)CCCC2` [Compound 7.f], in data set [1] (24 h), the IC50 was found to be 11.2 ± 0.66 µM. In addition, the cytotoxicity at 10 µM in “in vitro” was determined as 77.5%.
For `c1ccc2c(NCCCCCCCCNc3c4c(nc5ccccc35)CCCC4)c3c(nc2c1)CCCC3` [Compound 10.e] the same measures were 2.99 ± 0.98 µM and 99.5%.
Regarding `Clc1ccc2c(NCCCCCCCCCCCCNc3ccnc4cc(Cl)ccc34)ccnc2c1` [Compound 12, N^1,N^12-bis(7-chloroquinolin-4-yl)dodecane-1,12-diamine], the IC50 in data set [1] (24 h) stood at 0.6 ± 0.11 µM. The concentration giving a half-maximal response (EC50) in “in vitro” is 11.7 ± 3.96 µM.
In the case of `CC(=O)NCCCCCCCCCCNc1c2c(nc3ccccc13)CCCC2` [Compound 7.c], the IC50 in data set [1] (24 h) was over 100 µM.
As to `Clc1ccc2c(NCCCCCNc3c4c(nc5cc(Cl)ccc35)CCCC4)c3c(nc2c1)CCCC3` [Compound 10.k], the IC50 in data set [1] turned out to be 5.26 ± 4.89 µM. The cytotoxicity at 10 µM in the data set “in vitro” came to 87.5%.
Usually melting point stands for the temperature of the solid-liquid transition. Compound `Clc1ccc2c(NCCNc3c4c(nc5cc(Cl)ccc35)CCCC4)c3c(nc2c1)CCCC3` [Compound 10.h] returned a melting point of 89 to 95 °C. Also, in data set [1], the IC50 worked out at 9.5 ± 0.51 µM.
On to `O=C1C=C(NCCCNc2c3c(nc4cc(Cl)ccc24)CCCC3)C(=O)C=C1NCCCNc1c2c(nc3cc(Cl)ccc13)CCCC2` [Compound 9.c], for which, in data set [1], the IC50 was over 50 µM.
Regarding `c1ccc2c(NCCCCCCCCCCCCNc3c4c(nc5ccccc35)CCCC4)c3c(nc2c1)CCCC3` [Compound 10.g], in data set [1] (24 h), the IC50 worked out at 0.37 ± 0.06 µM. The compound further displayed a cytotoxicity at 10 µM in “in vitro” of 99.7%.
On to `O=CNCCCNc1c2c(nc3ccccc13)CCCC2` [Compound 8.d], for which the IC50 in data set [1] (24 h) worked out at 14.2 ± 0.98 µM. The same compound displayed a cytotoxicity at 50 µM in the data set “in vitro” of 100%.
`CC(=O)NCCCCCCCCNc1c2c(nc3ccccc13)CCCC2` [Compound 7.b]: the IC50 in data set [1] was over 100 µM.
For `c1ccc2c(NCCCCCNc3c4c(nc5ccccc35)CCCC4)c3c(nc2c1)CCCC3` [Compound 10.d], the IC50 in data set [1] (24 h) was over 50 µM.
The same measure, in the same setting: under `Clc1ccc2c(Cl)c3c(nc2c1)CCCC3` [Compound 5.b] stands over 100 µM.
Same read-out and setting: under `O=CNNc1c2c(nc3ccccc13)CCCC2` [Compound 8.a] stands over 50 µM.
`CC(=O)NCCCCCCNc1c2c(nc3ccccc13)CCCC2` [Compound 7.a]: the IC50 in data set [1] is over 100 µM.
On to `O=CNCCCCCCNc1c2c(nc3ccccc13)CCCC2` [Compound 8.e], for which the IC50 in data set [1] (24 h) was 3.23 ± 0.41 µM. In addition, the cytotoxicity at 10 µM in the data set “in vitro” worked out at 94.7%.
As for `O=CNCNc1c2c(nc3ccccc13)CCCC2` [Compound 8.b], the IC50 in data set [1] (24 h) was 5.64 ± 0.65 µM. Further, in “in vitro”, the cytotoxicity at 10 µM was 88.1%.
In the case of `O=CNCCNc1c2c(nc3ccccc13)CCCC2` [Compound 8.c], the IC50 in data set [1] (24 h) is 1.69 ± 0.22 µM. In addition, the cytotoxicity at 10 µM in “in vitro” was found to be 99.5%.
`Clc1ccc2c(NCCCCCCCCCCCCNc3c4c(nc5cc(Cl)ccc35)CCCC4)c3c(nc2c1)CCCC3` [Compound 10.n]: the IC50 in data set [1] is 3.5 ± 0.63 µM. In the data set “in vitro”, this compound returned a cytotoxicity at 50 µM of 92.5%.
With `CC(=O)NCCCCCCCCNc1c2c(nc3cc(Cl)ccc13)CCCC2` [Compound 7.e], the 50% inhibitory concentration (IC50) in data set [1] (24 h) was over 100 µM.
With `c1ccc2c(NCCCCCCCCCCNc3c4c(nc5ccccc35)CCCC4)c3c(nc2c1)CCCC3` [Compound 10.f], in data set [1] (24 h), the IC50 was determined as 0.94 ± 0.33 µM. Further, in “in vitro”, the cytotoxicity at 10 µM is 99.5%.
Take `O=C1C(Cl)=C(NCCCNc2c3c(nc4cc(Cl)ccc24)CCCC3)C(=O)C(Cl)=C1NCCCNc1c2c(nc3cc(Cl)ccc13)CCCC2` [Compound 9.d]: the IC50 in data set [1] stood at 2.17 ± 0.45 µM.
The same measure, in the same setting: under `O=C1C(Cl)=C(NCCCNc2c3c(nc4ccccc24)CCCC3)C(=O)C(Cl)=C1NCCCNc1c2c(nc3ccccc13)CCCC2` [Compound 9.b] stands over 100 µM.
Regarding `Clc1ccc2c(NCCCNc3c4c(nc5cc(Cl)ccc35)CCCC4)c3c(nc2c1)CCCC3` [Compound 10.i], the IC50 in data set [1] is 8.58 ± 0.47 µM. The cytotoxicity at 10 µM in the data set “in vitro” stood at 90.4%.
The corresponding values for `Clc1ccc2c(NCCCCCCCCCCNc3c4c(nc5cc(Cl)ccc35)CCCC4)c3c(nc2c1)CCCC3` [Compound 10.m] are 1.92 ± 0.21 µM and 99%.
For `Clc1c2c(nc3ccccc13)CCCC2` [Compound 5.a], the IC50 in data set [1] (24 h) is over 100 µM.
`O=CNCCCCCCCCNc1c2c(nc3ccccc13)CCCC2` [Compound 8.f]: the IC50 in data set [1] (24 h) turned out to be 1.55 ± 0.38 µM. In addition, the cytotoxicity at 10 µM in “in vitro” amounted to 91.2%.
`C[C@@H]1[C@H](O)[C@@H](C)/C=C/C=C/C=C/C=C/C=C/C=C/C=C/[C@H](O[C@@H]2O[C@H](C)[C@@H](O)[C@H](N)[C@@H]2O)C[C@@H]2O[C@](O)(C[C@@H](O)C[C@@H](O)[C@H](O)CC[C@@H](O)C[C@@H](O)CC(=O)O[C@H]1C)C[C@H](O)[C@H]2C(=O)O` [Amphotericin B, reference compound]: in data set [1] (24 h), the IC50 is 0.17 ± 0.09 µM. This compound also gave an EC50 in “in vitro” of 3.1 ± 0.6 µM.
On to `CC(=O)NCCCCCCNc1c2c(nc3cc(Cl)ccc13)CCCC2` [Compound 7.d], for which the IC50 in data set [1] was over 100 µM.
